Test results from US20050245399A1, “Pyrazole derivatives as herbicidal compositions containing them” (ISHIHARA SANGYO KAISHA, LTD., priority 2004, published 2005).

Experiments:
Format in all cases: in vivo
[1] = test system: barnyardgrass (Echinochloa crus-galli L.): ECHCG; test: Test Example 1 pre-emergence herbicidal activity, ECHCG; conditions: Rate 63 g a.i./ha, visually observed 20th to 23rd day after application
How it was run: (§1)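 pots, upland field soil; sow; +1 d spray compound (WP or EC, a.i. at set dose, 500 L/ha water), pre-emergence; visual % growth control d20–23 (0 untreated, 100 complete kill).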

[2] = test system: green foxtail (Setaria viridis L.), SETVI; test: Test Example 2 post-emergence (foliage treatment) herbicidal activity, SETVI; conditions: 63 g a.i./ha
How it was run: (§2)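 A small sprayer delivered the diluted WP or EC formulation (500 L/ha water, 0.1% v/v spreader) over emerged seedlings in upland soil pots. Damage relative to untreated plants was graded visually from 0 to 100% three weeks or so later (days 20-23).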

[3] = test system: wheat (Triticum aestivum L.): TRZAX; test: Test Example 1 pre-emergence herbicidal activity, TRZAX; conditions: Rate 63 g a.i./ha, visually observed 20th to 23rd day after application
How it was run: as §1

[4] = test system: prickly sida (Sida spinosa L.): SEDSP; test: Test Example 1 pre-emergence herbicidal activity, SIDSP; conditions: Rate 63 g a.i./ha, visually observed 20th to 23rd day after application
How it was run: as §1

[5] = test system: common cocklebur (Xanthium strumarium L.), XANST; test: Test Example 2 post-emergence (foliage treatment) herbicidal activity, XANST; conditions: 63 g a.i./ha
Source text: Upland field soil was put into a 1/170,000 ha pot, and seeds of various plants were sown. Then, when the plants reached predetermined leaf stages {1. barnyardgrass (Echinochloa crus-galli L.), ECHCG: 1.1-2.1 leaf stage, 2. crabgrass (Digitaria sanguinalis L.), DIGSA: 1.0-2.0 leaf stage, 3. green foxtail (Setaria viridis L.), SETVI: 1.0-2.2 leaf stage, 4. redroot pigweed (Amaranthus retroflexus L.), AMARE: 0.1-1.5 leaf stage, 5. prickly sida (Sida spinosa L.), SIDSP: 0.1-0.6 leaf stage, 6. velvetleaf (Abutilon theophrasti), ABUTH: 0.1-0.6 leaf stage, 7. common cocklebur (Xanthium strumarium L.), XANST: 0.1 leaf stage, 8. rice (Oryza sativa L.), ORYSA; 1.0-2 leaf stage, 9. wheat (Triticum aestivum L.), TRZAX: 2.3-3.5 leaf stage, 10. corn (Zea mays L.), ZEAMXN 2.1-2.6 leaf stage, 11. soybean (Glycine max Merr.), GLXMA: primary leaf stage}, a wettable powder or emulsifiable concentrate having the compound of the present invention formulated in accordance with a usual formulation method, was weighed so that the active ingredient would be a predetermined amount, and diluted with water in an amount of 500 L/ha. To the diluted solution, 0.1% (v/v) of an agricultural spreader was added. The herbicide adjusted was applied by a small size sprayer for foliage treatment. On the 20th to 23rd day after the application of the herbicide, the growth of the respective plants was visually observed, and the herbicidal effects were evaluated by growth controlling degrees (%) ranging from 0 (equivalent to the untreated control) to 100 (complete kill), whereby the results shown in Table 5, were obtained. Compound Nos. in Table 5 correspond to Compound Nos. in Table 1 and 2 given hereinbefore.

[6] = test system: barnyardgrass (Echinochloa crus-galli L.), ECHCG; test: Test Example 2 post-emergence (foliage treatment) herbicidal activity, ECHCG; conditions: 63 g a.i./ha
How it was run: (§3)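 Herbicide was applied to foliage of seedlings raised in upland field soil: redroot pigweed at 0.1-1.5 leaves, barnyardgrass at 1.1-2.1, crabgrass at 1.0-2.0, rice at 1.0-2. A predetermined active ingredient amount was carried in 500 L/ha water with 0.1% (v/v) spreader; control (%) was assessed by eye after 20-23 days.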

[7] = test system: velvetleaf (Abutilon theophrasti), ABUTH; test: Test Example 2 post-emergence (foliage treatment) herbicidal activity, ABUTH; conditions: 63 g a.i./ha
How it was run: as §2

[8] = test system: prickly sida (Sida spinosa L.), SIDSP; test: Test Example 2 post-emergence (foliage treatment) herbicidal activity, SIDSP; conditions: 63 g a.i./ha
How it was run: as §2

[9] = test system: soybean (Glycine max Merr.), GLXMA; test: Test Example 2 post-emergence (foliage treatment) herbicidal activity, GLXMA; conditions: 63 g a.i./ha
How it was run: as §2

[10] = test system: redroot pigweed (Amaranthus retroflexus L.): AMARE; test: Test Example 1 pre-emergence herbicidal activity, AMARE; conditions: Rate 63 g a.i./ha, visually observed 20th to 23rd day after application
How it was run: as §1

[11] = test system: corn (Zea mays L.): ZEAMX; test: Test Example 1 pre-emergence herbicidal activity, ZEAMX; conditions: Rate 63 g a.i./ha, visually observed 20th to 23rd day after application
How it was run: as §1

[12] = test system: rice (Oryza sativa L.), ORYSA; test: Test Example 2 post-emergence (foliage treatment) herbicidal activity, ORYSA; conditions: 63 g a.i./ha
How it was run: as §3

[13] = test system: crabgrass (Digitaria sanguinalis L.), DIGSA; test: Test Example 2 post-emergence (foliage treatment) herbicidal activity, DIGSA; conditions: 63 g a.i./ha
How it was run: as §3

In the case of COc1c(Cl)cc(F)c(-c2nn(C)c(OC(F)F)c2Cl)c1N(C=O)CC(=O)c1ccccc1 [Compound 1-12], the “Pre-emergence Herbicidal Activity ECHCG (growth controlling degree)” value [1] is reported as 70%, the “growth controlling degree, SETVI” value [2] is reported as 95% and the “Pre-emergence Herbicidal Activity TRZAX (growth controlling degree)” value [3] is reported as 20%. For the same compound, the “Pre-emergence Herbicidal Activity SIDSP (growth controlling degree)” value [4] was 100%, the “growth controlling degree, XANST” value [5] was 50% and the “growth controlling degree, ECHCO” value [6] was 70%. For the same compound, the “growth controlling degree, ABUTH” value [7] was 100%, the “growth controlling degree, SIDSP” value [8] was 100% and the “growth controlling degree, GLXMA” value [9] was 40%. For the same compound, the “Pre-emergence Herbicidal Activity AMARE (growth controlling degree)” value [10] was 100%, the “Pre-emergence Herbicidal Activity ZEAMX (growth controlling degree)” value [11] was 10% and the “growth controlling degree, ORYSA” value [12] was 40%. For the same compound, the “growth controlling degree, DIGSP” value [13] was 30%.
